Results on one molecule are retold here after publication PMC9973256, “A Cysteine Pair Controls Flavin Reduction by Extracellular Cytochromes during Anoxic/Oxic Environmental Transitions” (mBio, 2023).

What all share (type): binding
Assay [1] deals with T1, MtrCsol (soluble MtrC) (Shewanella oneidensis, UniProt Q8EG34, C453A).
T1 construct: soluble form; lipid anchor site and signal peptide replaced by MtrB signal peptide; C-terminal StrepTactin tag; expressed in S. oneidensis delta-mtrC (LS661); decaheme
The experiment in a line: copurification through anaerobic PD10 size exclusion column, flavin fluorescence. Particulars: 50 uM sodium dithionite (reduced FMN and heme), also with 1 mM DTT, no copurification without reductant.

The target of assay [2] is T2, MtrCsol (soluble MtrC) (Shewanella oneidensis, UniProt Q8EG34).
T2 construct: soluble form; lipid anchor site and signal peptide replaced by MtrB signal peptide; C-terminal StrepTactin tag; expressed in S. oneidensis delta-mtrC (LS661); decaheme
T2 sequence (Q8EG34 26-671): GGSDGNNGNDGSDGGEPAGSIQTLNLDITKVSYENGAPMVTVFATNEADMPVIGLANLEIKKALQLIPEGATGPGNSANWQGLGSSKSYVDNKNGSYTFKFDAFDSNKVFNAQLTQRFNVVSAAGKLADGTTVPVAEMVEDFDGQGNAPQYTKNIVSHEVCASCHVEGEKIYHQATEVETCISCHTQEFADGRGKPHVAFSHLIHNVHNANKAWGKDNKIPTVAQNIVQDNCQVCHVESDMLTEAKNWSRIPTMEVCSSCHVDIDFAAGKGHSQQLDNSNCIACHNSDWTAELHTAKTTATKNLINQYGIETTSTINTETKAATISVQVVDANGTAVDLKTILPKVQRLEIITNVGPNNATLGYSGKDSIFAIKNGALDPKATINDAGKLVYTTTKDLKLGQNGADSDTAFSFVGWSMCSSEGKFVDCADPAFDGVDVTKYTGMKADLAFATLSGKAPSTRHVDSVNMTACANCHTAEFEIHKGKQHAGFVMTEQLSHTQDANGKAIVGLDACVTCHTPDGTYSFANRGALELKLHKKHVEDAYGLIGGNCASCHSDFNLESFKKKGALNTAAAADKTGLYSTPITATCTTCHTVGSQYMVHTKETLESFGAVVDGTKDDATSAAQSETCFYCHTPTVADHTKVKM
Described as above. Particulars: 1 mM DTT (disulfide reduced), no copurification without DTT or with 50 uM dithionite only.

Assay [3] concerns the target T3, MtrCsol (soluble MtrC) (Shewanella oneidensis, UniProt Q8EG34, C453S).
T3 construct: soluble form; lipid anchor site and signal peptide replaced by MtrB signal peptide; C-terminal StrepTactin tag; expressed in S. oneidensis delta-mtrC (LS661); decaheme
The experiment in a line: […] NMR titration of FMN. To be noted: oxidized protein; 20 mM potassium phosphate pH 7.6, 100 mM KCl, 25 °C; slow exchange.

T1 sequence (Q8EG34 entry or part of it C453A): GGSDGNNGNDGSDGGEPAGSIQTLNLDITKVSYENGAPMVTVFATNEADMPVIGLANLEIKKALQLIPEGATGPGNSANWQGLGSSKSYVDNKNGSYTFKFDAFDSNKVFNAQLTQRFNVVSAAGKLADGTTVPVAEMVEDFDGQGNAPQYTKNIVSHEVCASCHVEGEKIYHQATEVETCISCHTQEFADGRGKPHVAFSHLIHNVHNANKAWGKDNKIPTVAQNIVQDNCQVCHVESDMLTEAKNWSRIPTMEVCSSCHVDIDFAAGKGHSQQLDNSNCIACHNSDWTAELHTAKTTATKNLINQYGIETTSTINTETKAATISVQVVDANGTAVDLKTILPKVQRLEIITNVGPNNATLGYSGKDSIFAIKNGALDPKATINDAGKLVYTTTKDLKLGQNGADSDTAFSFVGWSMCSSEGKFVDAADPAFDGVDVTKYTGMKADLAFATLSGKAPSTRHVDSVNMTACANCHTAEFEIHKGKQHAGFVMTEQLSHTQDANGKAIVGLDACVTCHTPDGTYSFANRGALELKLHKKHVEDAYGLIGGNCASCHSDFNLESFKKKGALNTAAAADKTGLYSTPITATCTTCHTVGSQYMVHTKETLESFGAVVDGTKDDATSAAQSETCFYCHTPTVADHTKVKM
T3 sequence (Q8EG34 entry or part of it C453S): as the sequence (Q8EG34 entry or part of it C453A) above, with A428S counted along it

In the case of `Cc1cc2nc3c(=O)[nH]c(=O)nc-3n(C[C@H](O)[C@H](O)[C@H](O)COP(=O)(O)O)c2cc1C` [FMN], the “copurification through anaerobic PD10 size exclusion column, flavin fluorescence” value was “revealed copurification of FMN with MtrCC453Asol but not MtrCsol” in assay [1] and “showing that MtrCC453Asol would form a similar FMN complex to MtrCsol in the presence of DTT” in assay [2]. For the same molecule, in assay [3], the “31P NMR titration of FMN” value is “signal of FMN upon exposure to oxidized MtrCC453Ssol was monitored”.
